Measured values: publication PMC11339798, “Dual inhibitors of Pseudomonas aeruginosa virulence factors LecA and LasB” (Chemical Science, 2024)

Columns and labels:
[1] = test system: A549 cells; test: Inhibition of LasB-dependent cytotoxicity of P. aeruginosa PAO1 culture supernatant on A549 cells (MTT); format: cell-based, human; settings: for A549 cell viability under PAO1 culture supernatant: 10% (v/v) PAO1 supernatant
Experimental: Next, we set out to analyze the ability of the dual inhibitor 12 and the individual treatment or combination of galactoside 1 and thiol 2 to reduce LasB-dependent cytotoxicity from P. aeruginosa PAO1 culture supernatant on A549 cells. None of the investigated compounds influenced A549 cell viability at 100 μM in the absence of bacterial culture supernatant (Fig. S4 ^†). […]
In vitro evaluation of 12 and a combination of 1 and 2 using P. aeruginosa culture supernatant and A549 cells in a cell viability assay
The A549 cell line, derived from human lung adenocarcinoma, was grown in Dulbecco's Modified Eagle Medium (DMEM) supplemented with 10% Fetal Bovine Serum (FBS) and 1% penicillin-streptomycin. The cells were cultured following standard protocols for cell […]
To prepare the bacterial culture supernatant, individual flasks containing 15 mL of lysogeny broth (LB) culture medium were inoculated with PAO1 or PAO1 ΔlasB strains. Culture flasks were placed on a shaker and incubated at 37 °C and 180 rpm overnight for 18 hours. Following incubation, the bacterial cultures were subjected to centrifugation at 4 °C and 5000 rpm for […]
10 min, facilitating the separation of bacterial cells from the supernatant. The latter was filtered through a 0.22 µm sterile filter and stored at –80 °C until further use.
In a flat bottom 96-well plate (Corning™ Costar™), each well was seeded with 2.5–3.5*10 3 cells in 100 µL DMEM/FCS and then incubated at a temperature of 37 °C with 5% CO2 for 24 hours. Then, compounds 12 and 1 combined with 2 in concentrations of 100 µM, 10 µM, and 1 µM were mixed with 10% (v/v) of culture supernatant of P. aeruginosa PAO1 (DSM 22644, ATCC 15692) in DMEM/FCS. To minimize the potential negative effect of DMSO, the compound was initially dissolved in 99.9% DMSO, and a final assay concentration of 0.5% DMSO was applied. Additionally, the cells were exposed to 10% (v/v) PAO1 ΔlasB culture supernatant to analyze the effect caused by LasB, while DMEM/FCS without any treatment served as a control. The plates were then incubated at 37 °C with 5% CO2 for 24 hours before conducting the MTT assay.
To assess cell viability, the medium in the well plates was aspirated and a single wash was performed using 100 µL of phosphate buffered saline, pH 7.4 (PBS). A solution of 5 mg MTT (3-(4,5-dimethylthiazol-2-yl)-2,5-diphenyl tetrazolium bromide) per mL PBS was prepared and diluted to a concentration of 10% (v/v) in DMEM/FCS. Subsequently, 100 µL of this MTT solution was added to each well, and the plates were incubated at 37 °C for 3 hours with 5%
CO2. After incubation, the MTT solution was carefully removed, and the formazan crystals were dissolved by adding 150 µL of lysis solution (250 mL DMSO, 25 g SDS, and 1.25 mL AcOH) to each well. The plates were then incubated for an additional 30 min at 37 °C and then, the UV absorbance was measured using a PHERAstar microplate reader. The test samples were read at a wavelength of 550 nm, while the blank was read at 620 nm. At last, the data were statistically analyzed and presented graphically using GraphPad Prism 9 (Figure S4 and S5).
Evaluation of compounds 1, 2 and 12 in inhibiting LecA adhesion to A549 cells via […]
The A549 cell line were cultured following the protocols for cell maintenance described above.
In a flat-bottom cell culture black 96-well plate (Greiner Bio-One, #Cat 655090) each well was seeded with 1*104 cells in 100 µL DMEM/FCS and subsequently, incubated overnight at 37 °C with 5% CO2. […]

[2] = test system: LecA-FITC binding to human A549 cells; test: Inhibition of LecA-FITC adhesion to A549 cells by fluorescence microscopy; format: cell-based; settings: 100 μM compound, 10 μM LecA-FITC, 4 °C, 30 min
Experimental: LecA-mediated cell adhesion is crucial for the initial infection and host-cell invasion of P. aeruginosa. Therefore, compounds 1 and 2, a combination of 1+2 and the dual inhibitor 12 were assessed for their ability to inhibit LecA-binding to human A549 cells. 10 μM of LecA-FITC and different concentrations of the respective compounds were incubated at 4 °C for 30 min with confluent A549 cells.
10 min, facilitating the separation of bacterial cells from the supernatant. The latter was filtered through a 0.22 µm sterile filter and stored at –80 °C until further use. […]
CO2. […] The plates were then incubated for an additional 30 min at 37 °C and then, the UV absorbance was measured using a PHERAstar microplate reader. The test samples were read at a wavelength of 550 nm, while the blank was read at 620 nm. At last, the data were statistically analyzed and presented graphically using GraphPad Prism 9 (Figure S4 and S5). […]
have any negative effects. The plate was then incubated at 4 °C for 30 min and wells were washed 5 times with PBS prior to imaging via fluorescence microscopy.
Fluorescence image acquisition, processing, and quantification
Fluorescence images were captured using an inverted fluorescence microscope (Leica DMi8) equipped with a 20x objective (HC PL APO CS2 20x/0.75 IMM UV), an FITC filter cube (EX: […]

For `CC(C)CC(S)C(=O)Nc1ccc(S[C@@H]2O[C@H](CO)[C@H](O)[C@H](O)[C@H]2O)cc1` (some centres unmarked) [Compound 12], the “A549 cell viability under PAO1 culture supernatant” value (“A549 cell viability” for short) ([1]; 1 μM compound) was “statistically significant beneficial effect on cell viability”, the “A549 cell viability” value ([1]; 10 μM compound) was “increase in cell viability compared to the combination of the individual LasB (2) and LecA (1) inhibitors” and the “A549 cell viability” value ([1]; 100 μM compound) was “increase in cell viability compared to the combination of the individual LasB (2) and LecA (1) inhibitors”. The “cytotoxicity of PAO1 culture supernatant in presence of compound” value ([1]; 100 μM compound, compared with LasB-deficient strain control) was “reached that of the LasB-deficient strain” and the “inhibition of binding of LecA-FITC to A549 cells” value [2] was “significantly inhibited the binding of LecA-FITC to A549 cells to the background level”.
